Laboratory results: patent US11059845B2, “Immune stimulating macrolides” (ISR IMMUNE SYSTEM REGULATION HOLDING AB (PUBL), priority 2017, dated 2021)
Values after ≈ are worked out from the molar mass of the structure shown.

Tests used:
Type in all cases: cell-based
[1] = test system: E. coli, S. salivarius, L. casei, B. longum or M. luteus; experiment: Direct antibacterial activity, summary over all strains tested; conditions: against the bacterial strains tested (Table 1)
Protocol: (§1) The bioactivity of macrolide compounds against 4 strains of common gut bacteria (Escherichia coli, Streptococcus salivarius subsp. salivarius, Lactobacillus casei and Bifidobacterium longum subsp. infantis) and common mammalian skin isolate Micrococcus luteus, was assessed using the Minimum Inhibitory Concentration (MIC) assay. Bacterial strains were purchased from DSMZ (Brunswick, Germany) except M. luteus which was obtained from NCIMB, and stored in 20% glycerol at −80° C. Stock solutions (100% DMSO) of positive controls (azithromycin and erythromycin), and of test compounds 1 and 2 were diluted in broth to working stock concentrations of 256 μg/ml (final assay testing concentration range 128 μg/ml to 0.00391 μg/ml). Stock solutions of all other compounds were diluted in broth to working stock concentrations of 128 μg/ml (final assay testing concentration range 64 μg/ml to 0.00195 μg/ml). Bacterial strains were cultivated in appropriate broth in an anaerobic chamber at 37° C., except for M. luteus which was incubated aerobically at 37° C. 18 h cultures were diluted in broth to an OD595 of 0.1 and then further diluted 1:10. In 96-well plates, in duplicate, 200 μl working stock of test compound was transferred to well 1 and serially diluted (1:2) in broth. 100 μl bacterial suspension was aliquoted into each well and mixed thoroughly. Appropriate sterility controls were included and plates were incubated in an anaerobic chamber, or aerobically (M. luteus) at 37° C. for 18 h. The MIC was determined to be the concentration of test compound in the first well with no visible growth.

Lactobacillus casei = experiment: Minimum Inhibitory Concentration (MIC) assay; conditions: Lacticaseibacillus casei; anaerobic, 37° C., 18 h
Protocol: as §1

[2] = test system: Streptococcus salivarius subsp. salivarius; experiment: Minimum Inhibitory Concentration (MIC) assay; conditions: anaerobic, 37° C., 18 h
Protocol: as §1

[3] = test system: Bifidobacterium longum subsp. infantis; experiment: Minimum Inhibitory Concentration (MIC) assay; conditions: anaerobic, 37° C., 18 h
Protocol: as §1

Escherichia coli = experiment: Minimum Inhibitory Concentration (MIC) assay; conditions: anaerobic, 37° C., 18 h
Protocol: as §1

Micrococcus luteus = experiment: Minimum Inhibitory Concentration (MIC) assay; conditions: aerobic, 37° C., 18 h
Protocol: as §1

human TLR2 = target: T1, human TLR2 (Homo sapiens, UniProt O60603); experiment: TLR2 reporter assay (HEK-293-TLR, SEAP); conditions: for OD after addition of 5 μM test article / OD after addition of 10 μM test article / OD after addition of 20 μM test article: SEAP reporter optical density; for TLR2 stimulation: at concentrations up to 20 uM
T1 construct: host or cells: recombinant HEK-293-TLR cell lines (hTLR2, NFkB-SEAP reporter)
T1 sequence (O60603 21-784): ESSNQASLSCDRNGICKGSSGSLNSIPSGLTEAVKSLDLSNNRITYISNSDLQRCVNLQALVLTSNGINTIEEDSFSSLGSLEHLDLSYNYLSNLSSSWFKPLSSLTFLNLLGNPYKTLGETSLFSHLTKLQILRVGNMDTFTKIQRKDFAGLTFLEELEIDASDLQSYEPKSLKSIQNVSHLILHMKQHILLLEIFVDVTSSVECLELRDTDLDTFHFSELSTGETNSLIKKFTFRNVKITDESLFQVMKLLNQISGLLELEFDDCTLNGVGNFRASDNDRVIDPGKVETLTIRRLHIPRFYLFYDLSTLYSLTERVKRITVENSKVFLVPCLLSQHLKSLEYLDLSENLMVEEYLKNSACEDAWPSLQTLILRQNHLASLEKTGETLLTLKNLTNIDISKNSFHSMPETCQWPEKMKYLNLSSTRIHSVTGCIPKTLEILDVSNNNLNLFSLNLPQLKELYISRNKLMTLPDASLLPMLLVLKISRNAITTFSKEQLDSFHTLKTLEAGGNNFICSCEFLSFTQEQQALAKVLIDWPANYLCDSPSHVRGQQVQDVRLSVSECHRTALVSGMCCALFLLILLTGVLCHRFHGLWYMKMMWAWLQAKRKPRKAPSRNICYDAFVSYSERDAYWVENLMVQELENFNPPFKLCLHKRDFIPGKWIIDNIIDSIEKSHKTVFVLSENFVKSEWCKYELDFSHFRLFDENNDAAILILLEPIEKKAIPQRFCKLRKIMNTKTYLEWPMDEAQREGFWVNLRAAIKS
Protocol: Samples and controls were tested in duplicate on recombinant HEK-293-TLR cell lines using a cell reporter assay at Invivogen using their standard assay conditions. These cell lines functionally over-express human TLR2 protein as well as a reporter gene which is a secreted alkaline phosphatase (SEAP). The production of this reporter gene is driven by an NFkB inducible promoter. The TLR reporter cell lines activation results are given as optical density values (OD). 20 μl of each test article were used to stimulate the hTLR2 reporter cell lines in a 200 μl of final reaction volume. Samples were tested in duplicate, with at least two concentrations tested—20 uM and 10 uM.
Compounds were tested using a TLR2 reporter assay (see general methods) that measured for stimulation of the TLR2 receptor. Stimulatory effect was measured as an increase in optical density (OD) due to release of secreted alkaline phosphatase (SEAP) and is shown in table 4: […]

Structure (SMILES) | MIC (Lactobacillus casei) [µg/mL] | MIC [2] [µg/mL] | MIC [3] [µg/mL] | MIC (Escherichia coli) [µg/mL] | MIC (Micrococcus luteus) [µg/mL] | OD after addition of 5 μM test article (human TLR2) | OD after addition of 10 μM test article (human TLR2) | OD after addition of 20 μM test article (human TLR2) | TLR2 stimulation (human TLR2) | concentrations at which TLR2 was stimulated (down to) (human TLR2; lowest stimulating concentration tested) [µM] | antibacterial activity [1]
CC[C@H]1OC(=O)[C@H](C)[C@@H](O[C@H]2CC(N(C)C)[C@H](O)C(C)O2)[C@H](C)[C@@H](O)[C@](C)(O)C[C@@H](C)CN(C)[C@H](C)[C@@H](O)[C@H]1C (some centres unmarked) [Compound 4] | > 64 | > 64 | > 64 | > 64 | – | – | – | – | – | – | no antibacterial activity
CC(O)[C@H]1OC(=O)[C@H](C)[C@@H](O[C@H]2C[C@@H](N(C)C)[C@H](O)[C@@H](C)O2)[C@H](C)[C@@H](O)[C@](C)(O)C[C@@H](C)C(=O)[C@H](C)[C@@H](O)[C@H]1C (some centres unmarked) [Compound 9, 14-hydroxy angolosamine erythronolide B] | > 64 | > 64 | > 64 | > 64 | – | – | – | – | – | – | no antibacterial activity
CC[C@H]1OC(=O)[C@H](C)[C@@H](O[C@H]2CC(N(C)C)[C@H](O)C(C)O2)[C@H](C)[C@@H](O)[C@](C)(O)C[C@@H](C)C(=O)[C@H](C)[C@@H](O)[C@H]1C (some centres unmarked) [Compound 3] | – | – | – | – | – | −0.043 | −0.015 | −0.026 | little or no stimulation | – | no antibacterial activity
CC[C@H]1OC(=O)[C@H](C)[C@@H](O[C@H]2CC(N(C)C)[C@H](O)C(C)O2)[C@H](C)[C@@H](O)[C@](C)(O)C[C@@H](C)N(C)C[C@H](C)[C@@H](O)[C@]1(C)O (some centres unmarked) [Compound 17] | – | – | – | – | – | 0.054 | 0.155 | 0.234 | – | ≥ 10 | –

More lines, main results first:

MIC (Lactobacillus casei) [µg/mL] | MIC [2] [µg/mL] | MIC [3] [µg/mL] | MIC (Escherichia coli) [µg/mL] | MIC (Micrococcus luteus) [µg/mL] | OD after addition of 5 μM test article (human TLR2) | OD after addition of 10 μM test article (human TLR2) | OD after addition of 20 μM test article (human TLR2) | TLR2 stimulation (human TLR2) | concentrations at which TLR2 was stimulated (down to) (human TLR2; lowest stimulating concentration tested) [µM] | Structure (SMILES) | antibacterial activity [1]
< 1 | < 0.5 | > 64 | < 8 | 0.125 (≈ 0.167 µM) | 0.029 | 0.045 | 0.031 | little or no stimulation | – | CC[C@H]1OC(=O)[C@H](C)[C@@H](O[C@H]2C[C@@](C)(OC)[C@@H](O)[C@H](C)O2)[C@H](C)[C@@H](O[C@@H]2O[C@H](C)C[C@H](N(C)C)[C@H]2O)[C@](C)(O)C[C@@H](C)CN(C)[C@H](C)[C@@H](O)[C@]1(C)O [Azithromycin, reference compound] | potent activity against a number of the strains
> 64 | > 64 | > 64 | > 64 | – | – | – | – | – | – | CC[C@H]1OC(=O)[C@H](C)[C@@H](O[C@H]2CC(N(C)C)[C@H](O)C(C)O2)[C@H](C)[C@@H](O)[C@](C)(O)C[C@@H](C)C(O)[C@H](C)[C@@H](O)[C@H]1C (some centres unmarked) [Compound 7] | no antibacterial activity
< 0.25 | < 0.06 | > 64 | > 64 | < 0.0625 | 0.035 | 0.065 | 0.045 | little or no stimulation | – | CC[C@H]1OC(=O)[C@H](C)[C@@H](O[C@H]2C[C@@](C)(OC)[C@@H](O)[C@H](C)O2)[C@H](C)[C@@H](O[C@@H]2O[C@H](C)C[C@H](N(C)C)[C@H]2O)[C@](C)(O)C[C@@H](C)C(=O)[C@H](C)[C@@H](O)[C@]1(C)O [Erythromycin, reference compound] | potent activity against a number of the strains
> 64 | > 64 | > 64 | > 64 | – | – | – | – | – | – | CC1O[C@@H](O[C@H]2[C@H](C)[C@@H](O)[C@](C)(O)C[C@@H](C)C(=O)[C@H](C)[C@@H](O)[C@@H](C)[C@@H](C)OC(=O)[C@@H]2C)CC(N(C)C)[C@@H]1O (some centres unmarked) [Compound 8] | no antibacterial activity
> 64 | > 64 | > 64 | > 64 | – | – | – | – | – | – | CC[C@H]1OC(=O)[C@H](C)[C@@H](O[C@H]2CC(NC)[C@H](O)C(C)O2)[C@H](C)[C@@H](O)[C@](C)(O)C[C@@H](C)C(=O)[C@H](C)[C@@H](O)[C@H]1C (some centres unmarked) [Compound 6] | no antibacterial activity
> 64 | > 64 | > 64 | > 64 | – | – | – | – | – | – | CC1O[C@@H](O[C@H]2[C@H](C)[C@@H](O)[C@](C)(O)C[C@@H](C)C(=O)[C@H](C)[C@@H](O)[C@@H](C)[C@@H](C3CCC3)OC(=O)[C@@H]2C)CC(N(C)C)[C@@H]1O (some centres unmarked) [Compound 5] | no antibacterial activity
